Experimental findings from patent publication US12612389B2, “Benzofuran-based N-acylhydrazone derivative and pharmaceutical composition comprising same” (KOREA RESEARCH INSTITUTE OF BIOSCIENCE AND BIOTECHNOLOGY, priority 2019, dated 2026) are described below.

Type in all cases: cell-based
For one assay, the system named is MCF7/ADR. The assay can be described thus: Anti-proliferative activity test in cancer cells exhibiting multidrug resistance (MTT). The note with it: for IC50: Homo sapiens, NCI/ADR-RES, 96 h, MCF7/ADR (multidrug-resistant), 4 days, MTT; for Resistance Factor: ratio IC50 MCF7/ADR to IC50 MCF7. The method, then: (§1) HeLa cells (American Type Culture Collection: ATCC, USA), a human cervical cancer cell line, were seeded in a 96-well plate at 3×10^3 cells/well, and the cells were then treated with compounds of Examples or Comparative Example according to the present invention and grown for 2 days. Then, MTT (3-(4,5-dimethylthiazol-2-yl)-2,5-diphenyltetrazolium bromide) reagent was added at 10 μL/well. […] The data shown in Table below are mean values of results obtained by repeating the analysis twice. Specifically, K562 and MCF7 (Bio Evaluation Center, Korea Research Institute of Bioscience and Biotechnology, Korea) and multidrug-resistant cell lines of each of these cell lines, i.e., K562/ADR and MCF7/ADR (Bio Evaluation Center, Korea Research Institute of Bioscience and Biotechnology, Korea), were cultured on microtiter plates (1-3×10^3 cells/well). […] The data shown in Table below are mean values of results obtained by repeating the analysis three times.

The subject of a further assay is K562/ADR. The description is as above. The note with it: for IC50: Homo sapiens, 96 h, K562/ADR (multidrug-resistant), 4 days, MTT; for Resistance Factor: ratio IC50 K562/ADR to IC50 K562. Here is the method: as §1
A further assay deals with K562. The assay can be described thus: Anti-proliferative activity test in cancer cells exhibiting multidrug resistance (MTT), parent line. The following applies: Homo sapiens, 96 h, 4 days. The method, then:
as §1

A further assay relates to MCF7. The assay is described as above. The following applies: Homo sapiens, 96 h, 4 days. Here is the method:
as §1

For `COc1cccc2c1C(=O)c1c(O)c3c(c(O)c1C2=O)C[C@@](O)(C(=O)CO)C[C@@H]3O[C@H]1C[C@H](N)[C@H](O)[C@H](C)O1` [Doxorubicin, doxorubicin], the IC50 with MCF7/ADR came out at 2610 nM; in the assay on K562/ADR it was 2190 nM; in the assay with K562 it was 2.85 nM; in the assay with MCF7, 15.4 nM. Further, the figures for the “Resistance Factor” value in the assay on MCF7/ADR and in the assay with K562/ADR were 169.57 and 767.91, respectively.

As for `CC(=O)O[C@H]1C(=O)[C@@]2(C)[C@H]([C@H](OC(=O)c3ccccc3)[C@]3(O)C[C@H](OC(=O)[C@H](O)[C@@H](NC(=O)c4ccccc4)c4ccccc4)C(C)=C1C3(C)C)[C@]1(OC(C)=O)CO[C@@H]1C[C@@H]2O` [Taxol, taxol], the IC50 with MCF7/ADR came to 1030 nM; in the assay on K562/ADR, 700 nM; in the assay on K562, 1.35 nM; in the assay on MCF7, 2.35 nM. For the same molecule, the “Resistance Factor” value came out at 438.38 in the assay with MCF7/ADR and 519.6 in the assay with K562/ADR.

In the case of `CC[C@]1(O)C[C@@H]2CN(CCc3c([nH]c4ccccc34)[C@@](C(=O)OC)(c3cc4c(cc3OC)N(C)[C@H]3[C@@](O)(C(=O)OC)[C@H](OC(C)=O)[C@]5(CC)C=CCN6CC[C@]43[C@@H]65)C2)C1` [Vinblastine, vinblastine], the IC50 was 95.9 nM in the assay on MCF7/ADR, 268 nM with K562/ADR, 17.1 nM in the assay on K562 and 5.28 nM with MCF7. In addition, the “Resistance Factor” value with MCF7/ADR is listed as 18.17; in the assay on K562/ADR, 15.63.
